{"source": "paper PMC8452690", "about": "“Structural basis for small molecule targeting of Doublecortin Like Kinase 1 with DCLK1-IN-1” (Communications Biology, 2021)", "key": {"[1]": {"target": "T1, DCLK1-FL1Δ D511N tubulin polymerisation (MAP function) (Homo sapiens, UniProt O15075, D511N)", "T1 construct": "DCLK1-FL1Δ (residues 50-686); 8XHis tag with TEV protease cleavage site (N); made in house; host or cells: Escherichia coli C41(DE3)", "T1 sequence (O15075 50-686 isoform O15075-2 D511N)": "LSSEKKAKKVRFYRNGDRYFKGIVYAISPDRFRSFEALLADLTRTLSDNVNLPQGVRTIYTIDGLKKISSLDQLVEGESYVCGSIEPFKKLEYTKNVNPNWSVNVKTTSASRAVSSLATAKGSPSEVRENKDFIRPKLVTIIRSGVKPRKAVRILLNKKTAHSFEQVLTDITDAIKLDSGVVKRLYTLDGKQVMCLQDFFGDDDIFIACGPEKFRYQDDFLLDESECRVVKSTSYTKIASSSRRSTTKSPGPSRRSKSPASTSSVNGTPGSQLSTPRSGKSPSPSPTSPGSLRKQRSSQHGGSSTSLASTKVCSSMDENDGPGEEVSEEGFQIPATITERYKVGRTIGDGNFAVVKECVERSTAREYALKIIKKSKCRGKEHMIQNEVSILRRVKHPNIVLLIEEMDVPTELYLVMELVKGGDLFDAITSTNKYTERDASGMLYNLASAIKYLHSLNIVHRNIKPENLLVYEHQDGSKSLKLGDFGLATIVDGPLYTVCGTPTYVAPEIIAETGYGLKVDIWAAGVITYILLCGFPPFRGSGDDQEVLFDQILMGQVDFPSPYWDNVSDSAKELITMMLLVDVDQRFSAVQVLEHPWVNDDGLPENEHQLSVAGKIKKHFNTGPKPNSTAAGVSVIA", "experiment": "Fluorescence-based Tubulin Polymerisation Assay with DCLK1-FL1Δ D511N", "assay_type": "biochemical", "conditions": "20 μM or 40 μM, fluorescence (Fig. 5e)", "protocol": "(§1) Tubulin polymerisation assay were performed using the Microtubule Polymerisation/Depolymerisation Fluorescence Kit (Cytoskeleton #BK011P) in accordance with the manufacturer’s instructions. DCLK1 (4 μΜ) was added to 50 μL tubulin reaction mix containing Buffer 1 (80 mM PIPES at pH 6.9, 2.0 mM MgCl2, 0.5 mM EGTA, 10 μM fluorescent reporter), guanosine triphosphate stock solution at 100 mM, and tubulin (10 mg/ml) stock solution, as described by the manufacturer. Paclitaxel, a control of tubulin polymerisation, was tested at 3 μM, and Νocodazole, a tubulin polymerisation inhibitor, was tested at 80 μΜ. DCLK1-IN-1 was tested at 20 and 40 μΜ with buffer alone as controls. Polymerisation leads to fluorescence enhancement due to incorporation of a fluorescence reporter into polymerising microtubules and was measured by excitation at 355 nm and emission at 460 nm. Readings were taken every 20 s on EnVision Multimode Plate Reader. Each condition was tested in duplicate with two independent batches of protein."}, "[2]": {"target": "T1, DCLK1-FL1Δ D511N tubulin polymerisation (MAP function)", "experiment": "Tubulin polymerisation and pelleting assay with DCLK1-FL1Δ D511N", "assay_type": "biochemical", "protocol": "(§2) Tubulin polymerisation assays were performed in buffer containing 80 mM PIPES at pH 6.9, 2.0 mM MgCl2, 0.5 mM EGTA, 2.5 mM β,γ-Methyleneguanosine 5’-triphosphate, and 10 μM tubulin and 5 μM DCLK1 for 1 h at 37 °C. For tubulin polymerisation in the presence of inhibitors, various concentrations of the inhibitors were first incubated with DCLK1 and allowed to stand on ice for 5 min before adding this mix to the tubulin polymerisation reaction. Following the tubulin polymerisation, the reaction mix was pelleted at 20,000 g for 20 min and the supernatant and the pellet fractions were run on a 12% SDS gel. The data shown are representative of two independent experiments."}, "tubulin": {"tested_on": "tubulin", "experiment": "Tubulin polymerisation in the absence of DCLK1 (pelleting and fluorescence assays)", "assay_type": "biochemical", "conditions": "absence of DCLK1-FL1Δ D511N", "protocol": "as §2\nas §1, with “Paclitaxel, a control of tubulin polymerisation, was tested at 3 μM, and Νocodazole, a tubulin polymerisation inhibitor, was tested at 80 μΜ. DCLK1-IN-1 was tested at 20 and 40 μΜ with buffer alone as controls.” left out, “Each condition was tested in duplicate with two independent batches of protein.” left out"}, "DCLK1-FL1Δ D511N": {"target": "T2, DCLK1-FL1Δ D511N (Homo sapiens, UniProt O15075, D511N)", "T2 construct": "DCLK1-FL1Δ (residues 50-686); 8XHis tag with TEV protease cleavage site (N); made in house; host or cells: Escherichia coli C41(DE3)", "experiment": "Thermal shift stability assay, DCLK1-FL1Δ D511N", "assay_type": "binding", "conditions": "D511N mutant, 2.5-40 μM", "protocol": "DCLK1 proteins were diluted in 150 mM NaCl, 20 mM Tris pH 8.0, 1 mM DTT to […] final concentration and assayed with the appropriate concentration of inhibitor in a total reaction volume of 25 μL. SYPRO Orange (Molecular Probes) was used as a fluorescence probe and detected at 530 nm. The data shown are representative of two independent experiments."}}, "data": [{"smiles": "COc1cc(N2CCN(C)CC2)ccc1Nc1ncc2c(n1)N(C)c1ccccc1C(=O)N2CC(F)(F)F", "note": "[DCLK1-IN-1]", "values": [{"measurement": "effect on DCLK1-FL1Δ D511N ability to polymerise tubulin", "setting": "[1]", "value": "did not impact"}, {"measurement": "effect on DCLK1-FL1Δ D511N ability to polymerise tubulin", "setting": "[2]; 20 μM or 40 μM, pelleting / SDS-PAGE (Fig. 5d)", "value": "did not impact"}, {"measurement": "aggregation and pelleting of DCLK1-FL1Δ D511N upon centrifugation", "setting": "[2]; 40 μM, without tubulin polymerisation (Fig. 5d lanes 12, 13)", "value": "does not cause"}, {"measurement": "tubulin polymerisation and stabilisation by compound alone", "setting": "tubulin", "value": "does not promote tubulin polymerisaton and stabilisation"}, {"measurement": "melting temperature change versus control compound DCLK1-NEG", "setting": "DCLK1-FL1Δ D511N", "value": "increased"}]}]}
